Assays:
[1] = tested on: fibula bone fracture; test: Effect of accelerating cure of bone fracture (rat fibula fracture model; callus bone density and three-point bending strength); assay type: in vivo, male IGS rats; settings: 50 ng/kg/min intravenously for 2 hours twice a day for 21 days
Method: (ix) Effect of Accelerating Cure of Bone Fracture
According to the methods of R. Sakai (Bone, 25, 191-196 (1999)), H. Kawaguchi (Endocrinology, 135, 774-781 (1994)) and T. Hoshino (J. Biomed Mater Res., 51, 229-306 (2000)), a bone fracture model was prepared with male IGS rats of 8 weeks of age. Hair of the left hind-limb of a rat was cut under anesthetization with pentobarbital Na, and Viccillin S 500 (500 mg potency) (Meiji Seika) was intramuscularly injected at a dose of 10 mg potency/100 μl distilled water/body. Then, the skin on the fibula (from the back of knee joint to tendo Achillis) was incised to ablate the muscular tissue and expose the fibula. […] The recovered fibulae were taken radiographs to assess development of the cure of fracture based on the presence of a fracture line and callus formation, and the density and strength of the bone around the fracture portion were measured. […]
The bone density of the callus region at the fracture position of the recovered fibula was measured referring to the reports of C. […] During photographing, a phantom for quantitative analysis of bone salt for mice (Kyoto Kagaku Co.) was set together in order to make an analytical curve for measurement of bone density. The image was read by a Bio-imaging Analyzer BAS-1800 (FUJIFILM)/Image Reader (FUJIFILM) and processed with an Image Gauge, ver.3.1.12 (FUJIFILM). […]

[2] = molecular target: T1, murine EP4 (Mus musculus, UniProt P32240); test: Receptor-binding experiment (3H-PGE2 binding inhibition) using membranes of CHO cells expressing prostanoid receptor sub-types; settings: binding to EP4 receptor, CHO cell membranes, read-out: Dissociation Constant Ki
T1 construct: expressed in transfected cells; host or cells: CHO cells (membrane fraction)
Method: (i) Experiment for receptor-binding using cells which express prostanoid receptor sub-types
According to the method of Sugimoto et al. (J. Biol. Chem., 267, 6463-6466 (1992)), CHO cells which expressed prostanoid receptor sub-types (murine EP1, EP2, EP3α, and EP4, respectively) were prepared and used as membrane authentic samples.
A reaction solution (200 μl) containing the prepared membrane fraction (0.5 mg/ml) and ^3H-PGE2 was incubated at room temperature for 1 hour. The reaction was terminated with ice cold buffer (3 ml), and the reaction mixture was filtered under suction through a glass filter (GF/B), on which the binding ^3H-PGE2 was trapped, and the binding radioactivity was measured by means of a liquid scintillator.
The Kd value was obtained from the Acatchard plots [Ann. N.Y. Acad. Sci., 51, 660 (1949)]. Non-specific binding was obtained as the binding in the presence of an excess amount (2.5 μM) of unlabelled PGE2. Measurement of the binding inhibition for ^3H-PGE2 with the compounds of the invention was performed by adding ^3H-PGE2 (2.5 nM) and a series of concentrations of the compound of the invention. In this reaction, the following buffer was used in all cases. • Buffer: 10 mM potassium phosphate (pH 6.9), 1 mM EDTA, 10 mM MgCl2, and 0.1M NaCl.
Dissociation constant Ki (μM) of each compound was calculated from the following equation. Ki=IC50/(1+([C]/Kd))

[3] = tested on: collagen-induced arthritis; test: Arthritis induced by collagen in rats; assay type: in vivo, female DA/Slc rat; settings: limbs scored at 27 days, full score 30, *p < 0.05
Method: (iv) Inhibitive Effect for Chronic Articular Rheumatism
(1) Arthritis Induced by Collagen in Rats
Experiment was performed according to the method of Osterman et al. (Inflamm. Res., 44, 258-263). An inducing agent (an emulsion prepared by adding an equal volume of physiological saline and 2 equivalent volume of incomplete Freund adjuvant to 0.3% solution of type II collagen of bovine origin) 0.1 ml each was applied intracutaneously to the 4 sites of the back of a female DA/Slc rat. After a lapse of 1 week, the same inducing agent was further applied intracutaneously to the tail root to induce arthritis. At 27 days the limbs were scored responding to the degree of redness and edema and assessed as 30 was regarded as full scores. The compound of the invention was dissolved in an equimolar amount of 0.02 mole/L sodium hydroxide solution, diluted with distilled water, and orally given 3 times a day from the next day of the first administration of inducer.

T1 sequence (P32240 whole entry): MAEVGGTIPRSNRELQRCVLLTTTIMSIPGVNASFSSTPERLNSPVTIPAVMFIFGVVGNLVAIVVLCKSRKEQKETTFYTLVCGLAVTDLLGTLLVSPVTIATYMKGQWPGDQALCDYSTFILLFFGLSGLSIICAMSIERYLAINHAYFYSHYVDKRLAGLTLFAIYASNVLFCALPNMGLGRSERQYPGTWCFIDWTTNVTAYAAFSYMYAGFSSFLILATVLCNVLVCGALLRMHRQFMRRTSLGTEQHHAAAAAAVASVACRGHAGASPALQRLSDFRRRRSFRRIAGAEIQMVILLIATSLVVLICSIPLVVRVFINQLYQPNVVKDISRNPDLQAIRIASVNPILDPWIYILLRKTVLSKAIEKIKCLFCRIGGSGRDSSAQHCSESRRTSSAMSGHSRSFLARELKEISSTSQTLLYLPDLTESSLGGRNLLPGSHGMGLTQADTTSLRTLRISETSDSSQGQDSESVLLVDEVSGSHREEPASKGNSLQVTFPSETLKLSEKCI

COCc1cccc(C[C@H](O)/C=C/[C@H]2[C@H](O)CC(=O)[C@@H]2CCSCCCC(=O)OC)c1 [Compound (1), (11α,15α,13E)-9-Oxo-11,15-dihydroxy-16-(3-methoxymethylphenyl)-17,18,19,20-tetranor-5-thiaprost-13-enoic acid methyl ester]
Bone Density ([1]; callus region): 42.8 ± 2.58 mg/cm^2
Fracture Strength ([1]; three-point bending test): 30.4 ± 12.4% of intact

O=C(O)CCCCCCN1C(=O)CC[C@@H]1/C=C/[C@@H](O)Cc1cccc(C#Cc2ccccc2)c1 [Example 2(pp), (15α,13E)-9-Oxo-15-hydroxy-16-(3-(2-phenylethynyl)phenyl)-17,18,19,20-tetranor-8-azaprost-13-enoic acid]
Ki [2]: 0.24 nM

O=C(O)CCCSCCN1C(=O)CC[C@@H]1/C=C/[C@@H](O)Cc1cccc(Cl)c1 [Example 3 (b), (15α,13E)-9-Oxo-15-hydroxy-16-(3-chlorophenyl)-17,18,19,20-tetranor-5-thia-8-azaprost-13-enoic acid]
Arthritic Score (Means ± SE) ([3]; 300 μg/kg orally 3 times a day): 19.3 ± 1.4*

Cc1ccc(C[C@H](O)/C=C/[C@H]2CCC(=O)N2CCSCCCC(=O)O)o1 [Example 3 (kk), (15α,13E)-9-Oxo-5-hydroxy-16-(5-methylfuran-2-yl)-17,18,19,20-tetranor-5-thia-8-azaprost-13-enoic acid]
Arthritic Score (Means ± SE) ([3]; 100 μg/kg orally 3 times a day): 11.9 ± 3.6*

O=C(O)CCCSCCN1C(=O)CC[C@@H]1/C=C/[C@@H](O)Cc1ccc(F)cc1 [Example 3 (l), (15α,13E)-9-Oxo-15-hydroxy-16-(4-fluorophenyl)-17,18,19,20-tetranor-5-thia-8-azaprost-13-enoic acid]
Arthritic Score (Means ± SE) ([3]; 100 μg/kg orally 3 times a day): 16.3 ± 3.0*

CCCc1cccc(C[C@H](O)/C=C/[C@H]2CCC(=O)N2CCSCCCC(=O)O)c1 [Example 3(e), (15α,13E)-9-Oxo-15-hydroxy-16-(3-propylphenyl)-17,18,19,20-tetranor-5-thia-8-azaprost-13-enoic acid]
Ki [2]: 0.71 nM

O=C1CC[C@H](/C=C/[C@@H](O)Cc2ccc(F)cc2)N1CCSCCCCO [Example 4 (h), (15α,13E)-9-Oxo-15-hydroxy-16-(4-fluorophenyl)-17,18,19,20-tetranor-5-thia-8-azaprost-13-en-1-ol]
Arthritic Score (Means ± SE) ([3]; 300 μg/kg orally 3 times a day): 9.8 ± 1.9*
